Test results reported in DBAASP.
Values after ≈ are worked out from the molar mass of the structure shown.

Experiments:
Assay in all cases: ≥ marks a high value that may be exact or a test limit, other limits are often not marked, values filed in µg/mL are converted to µM
Acinetobacter baumannii = tested on: Acinetobacter baumannii
[1] = tested on: Escherichia coli ATCC 25922
[2] = tested on: Bacillus subtilis ATCC 23857
[3] = tested on: Acinetobacter baumannii ATCC 19606
[4] = tested on: Klebsiella pneumoniae ATCC 700603
[5] = tested on: Staphylococcus aureus 936
[6] = tested on: Pseudomonas aeruginosa ATCC 27853
[7] = tested on: Staphylococcus aureus ATCC 25923
[8] = tested on: Enterococcus faecalis ATCC 29212
[9] = tested on: Staphylococcus aureus 725
[10] = tested on: Pseudomonas aeruginosa 2760
Escherichia coli 780 = tested on: Escherichia coli 780
Escherichia coli 850 = tested on: Escherichia coli 850
[11] = tested on: Staphylococcus aureus NBRC 12732
[12] = tested on: Escherichia coli DH5alpha
[13] = tested on: Micrococcus luteus NBRC 12708
[14] = tested on: Staphylococcus aureus JCM 2151
[15] = tested on: Escherichia coli NBRC 14237
[16] = tested on: Pseudomonas aeruginosa NBRC 12582
Enterococcus faecium = tested on: Enterococcus faecium
[17] = tested on: Staphylococcus aureus K52
[18] = tested on: Staphylococcus aureus K35
[19] = tested on: Escherichia coli ATCC 700928
[20] = tested on: Staphylococcus aureus ATCC 9144
[21] = tested on: Acinetobacter baumannii ATCC 17978
[22] = tested on: Candida albicans ATCC 90028
[23] = tested on: Bacillus subtilis ATCC 13933
[24] = tested on: Pseudomonas aeruginosa PAO1
[25] = tested on: Staphylococcus aureus USA 300
[26] = tested on: Klebsiella pneumoniae NCTC 13368
[27] = tested on: Escherichia coli NCTC 12923
Bacillus subtilis PS832 = tested on: Bacillus subtilis PS832
Escherichia coli MG1655 = tested on: Escherichia coli MG1655
[28] = tested on: Staphylococcus aureus 68 HER 1049
[29] = tested on: Escherichia coli K12 MG1655

## CC[C@H](C)[C@H](NC(=O)[C@H](CCCCN)NC(=O)[C@H](CCCCN)NC(=O)[C@@H]1CCCN1C(=O)[C@H](CC(C)C)NC(=O)[C@H](CCCCN)NC(=O)[C@H](C)NC(=O)[C@H](CC(C)C)NC(=O)[C@@H]1CCCN1C(=O)[C@H](CCCCN)NC(=O)[C@H](CC(C)C)NC(=O)[C@H](CC(N)=O)NC(=O)[C@@H](NC(=O)[C@H](CCCCN)NC(=O)[C@@H]1CCCN1C(=O)[C@H](CC(C)C)NC(=O)[C@H](CC(C)C)NC(=O)[C@H](Cc1ccc(O)cc1)NC(=O)CNC(=O)[C@H](C)N)[C@@H](C)CC)C(=O)N[C@@H](CC(C)C)C(N)=O [AGYLLPKINLKPLAKLPKKIL]
Acinetobacter baumannii
  MIC: ≥ 54.9 µM
[1]
  MIC: > 54.9 µM
[2]
  MIC: ≥ 54.9 µM
[3]
  MIC: 54.9 µM (≈ 128 µg/mL)
[4]
  MIC: > 54.9 µM
[5]
  MIC: ≥ 54.9 µM
[6]
  MIC: 54.9 µM (≈ 128 µg/mL)
[7]
  MIC: > 54.9 µM
[8]
  MIC: > 54.9 µM
[9]
  MIC: ≥ 54.9 µM
[10]
  MIC: ≥ 54.9 µM
Escherichia coli 780
  MIC: ≥ 54.9 µM
Escherichia coli 850
  MIC: ≥ 54.9 µM

## CC[C@H](C)[C@H](NC(=O)[C@@H](N)Cc1ccccc1)C(=O)NCC(=O)N[C@@H](C)C(=O)N[C@@H](CC(C)C)C(=O)N[C@@H](CC(C)C)C(=O)N[C@@H](CCCN=C(N)N)C(=O)N1CCC[C@H]1C(=O)N[C@@H](C)C(=O)N[C@@H](CC(C)C)C(=O)N[C@@H](CCCCN)C(=O)N[C@@H](CC(C)C)C(=O)N[C@@H](CC(C)C)C(=O)N[C@@H](C)C(N)=O [FIGALLRPALKLLA]
[11]
  MIC: 12.5 µM (≈ 18.7 µg/mL)
[12]
  MIC: ≥ 33.4 µM
[13]
  MIC: 25 µM (≈ 37.4 µg/mL)
[14]
  MIC: 6.48 µM (≈ 9.69 µg/mL)
[15]
  MIC: 12.5 µM (≈ 18.7 µg/mL)
[16]
  MIC: ≥ 50 µM

## CC(C)C[C@H](NC(=O)[C@H](CC(C)C)NC(=O)CNC(=O)[C@H](CO)NC(=O)[C@H](CC(C)C)NC(=O)[C@@H](NC(=O)[C@H](CCCN=C(N)N)NC(=O)CNC(=O)[C@H](CC(C)C)NC(=O)[C@H](CC(C)C)NC(=O)[C@@H]1CCCN1C(=O)[C@H](CC(C)C)NC(=O)[C@@H](N)Cc1ccccc1)C(C)C)C(N)=O [FLPLLGRVLSGLL]
Enterococcus faecium
  MIC: 5.6 µM (≈ 7.82 µg/mL)
[17]
  MIC: 2.8 µM (≈ 3.91 µg/mL)
[18]
  MIC: 2.8 µM (≈ 3.91 µg/mL)
[7]
  MIC: 5.2 µM (≈ 7.26 µg/mL)
[8]
  MIC: 10.5 µM (≈ 14.7 µg/mL)

## CC[C@H](C)[C@H](NC(=O)CNC(=O)[C@@H](N)CCCCN)C(=O)N[C@@H](CCCN=C(N)N)C(=O)NCC(=O)N[C@@H](Cc1ccc(O)cc1)C(=O)N[C@@H](CCCCN)C(=O)NCC(=O)NCC(=O)N[C@@H](Cc1ccc(O)cc1)C(=O)N[C@@H](CS)C(=O)N[C@@H](CCCCN)C(=O)NCC(=O)N[C@@H](C)C(=O)N[C@@H](Cc1ccccc1)C(=O)N[C@@H](CCCCN)C(=O)N[C@@H](CCC(N)=O)C(=O)N[C@H](C(=O)N[C@@H](CS)C(=O)N[C@@H](CCCCN)C(=O)N[C@@H](CS)C(=O)N[C@@H](Cc1ccc(O)cc1)C(=O)O)[C@@H](C)O [KGIRGYKGGYCKGAFKQTCKCY]
[19]
  MIC: ≥ 48.8 µM
[20]
  MIC: ≥ 52 µM
[21]
  MIC: ≥ 52 µM
[22]
  MIC: 1.9 µM (≈ 4.67 µg/mL)
[23]
  MIC: ≥ 48.8 µM
[24]
  MIC: > 52 µM
[25]
  MIC: ≥ 52 µM
[26]
  MIC: ≥ 52 µM
[27]
  MIC: ≥ 52 µM

## CC[C@H](C)[C@H](NC(=O)[C@H](CCCN=C(N)N)NC(=O)[C@H](CCCCN)NC(=O)[C@H](CC(C)C)NC(=O)[C@H](CC(C)C)NC(=O)CNC(=O)[C@H](Cc1cnc[nH]1)NC(=O)[C@H](CCCCN)NC(=O)[C@@H](N)CC(C)C)C(=O)N[C@@H](CCCCN)C(=O)N[C@H](C(=O)N[C@@H](CC(C)C)C(=O)N[C@@H](CC(C)C)C(N)=O)[C@@H](C)O [LKHGLLKRIKTLL]
Bacillus subtilis PS832
  MIC: 8 µM (≈ 12.3 µg/mL)
Escherichia coli MG1655
  MIC: 8 µM (≈ 12.3 µg/mL)

## CC[C@H](C)[C@H](NC(=O)[C@H](CCCN=C(N)N)NC(=O)[C@H](CCCN=C(N)N)NC(=O)[C@H](CC(C)C)NC(=O)[C@H](CCCCN)NC(=O)[C@H](CCCCN)NC(=O)[C@H](Cc1c[nH]c2ccccc12)NC(=O)[C@H](CCCCN)NC(=O)[C@H](CCCCN)NC(=O)[C@H](Cc1c[nH]c2ccccc12)NC(=O)[C@@H](N)Cc1ccc(O)cc1)C(=O)N[C@@H](Cc1ccccc1)C(=O)N[C@@H](CCSC)C(=O)N[C@@H](CC(C)C)C(=O)N[C@H](C(=O)O)C(C)C [YWKKWKKLRRIFMLV]
[28]
  MIC: 3.82 µM (≈ 8 µg/mL)
[29]
  MIC: 0.954 µM (≈ 2 µg/mL)
